The source of these data is patent US12629419B2, “Prevention or mitigation of T-cell engaging agent-related adverse effects” (Hoffmann-La Roche Inc., priority 2020, dated 2026).

“Also recorded” adds a separate entry of the source.

For assay [1], the system named is CD19-TCB-mediated cytokine release. Kind of assay: cytokine release upon first CD19-TCB infusion in lymphoma PDX bearing mice (serum). It is filed as in vivo. The following applies: for effects on cytokine levels: compared with obinutuzumab pre-treatment. The protocol:
(§1) FIG. 89. In vivo experiment timelines and dosing schedule. Humanized NSG mice were engrafted with a lymphoma PDX (5 million cells, s.c.). […] The kinase inhibitors were given twice on the day of the first CD19-TCB administration (D16, once 1 hour before CD19-TCB, and once afterwards), and then once (sirolimus) or twice (dasatinib, ruxolitinib) on the two following days (D17 and D18), as well as once 1 hour before each subsequent CD19-TCB administration.
FIG. 94. […] Cytokine levels were measured by Luminex in serum collected 6 hrs post first infusion with CD19-TCB. Mean of n=6-8 mice+SD with *p≤0.05, **p<0.01, ***p<0.001 by 1 way ANOVA (Kruskal Wallis test).
(§2) First, we verified if the PDX cells were killed upon treatment with CD19-TCB in vitro, using a killing assay. The lymphoma PDX cells were co-cultured together with PBMCs (E:T=10:1) in the presence of CD19-TCB. […] Moreover, they were also administered one hour before each subsequent treatment to prevent residual cytokine secretion (FIG. 89).

The subject of assay [2] is CD19-TCB-induced cytokine release. Briefly: CD19-TCB-induced cytokine release in humanized NSG mice (serum, Luminex). It is filed as in vivo. The following applies: serum 6 hrs post treatment with CD19-TCB. From the text: FIG. 81. In vivo experiment timelines and dosing schedule.
To best reproduce the pharmacodynamic profile of ruxolitinib, dasatinib and sirolimus in the clinic and to verify whether the resulting exposure would be sufficient to prevent CD19-TCB-induced cytokine release, dasatinib and ruxolitinib were given per os twice per day, and sirolimus was given per os twice per day on day 1 and then once per day.

The test system is the same in assay [3]. Kind of assay: CD19-TCB NALM-6 assay, inhibitors added after 24 hrs: cytokine release. It is filed as cell-based. The following applies: 100 nM added at 24 hrs; between 24 hrs and 48 hrs. The protocol:
(§3) FIG. 78. In vitro killing assay set-up. PBMCs were co-cultured with CTV labelled NALM-6 cells (E:T=10:1) in the presence of escalating concentrations of CD19-TCB for 24 hrs. At 24 hrs, the culture medium was supplemented with 100 nM dasatinib, 100 nM sirolimus or 100 nM ruxolitinib.
(§4) To assess whether the mTOR inhibitor sirolimus, the JAK1/2 inhibitor ruxolitinib and the Src inhibitor dasatinib can prevent further release of cytokines induced by the treatment of CD19-TCB, they were added in an in vitro killing assay after 24 hrs of activation (FIG. 78). In this assay CTV labelled NALM-6 tumors cells were co-cultured with PBMCs in the presence of escalating doses of CD19-TCB for 24 hrs. At 24 hrs, 100 nM ruxolitinib, 100 nM sirolimus or 100 nM dasatinib were added in the system. To verify if T cells were activated before the addition of the different kinase inhibitors, tumor cell killing and cytokine release were measured at 24 hrs (FIGS. 79 and 80). Lastly, cytokine release and tumor cell killing were measured at 48 hrs to assess the effect of the addition of 100 nM ruxolitinib, 100 nM sirolimus or 100 nM dasatinib on CD19-TCB-induced cytokine release as compared to the effect on killing.

Assay [4] deals with lymphoma patient derived xenograft (PDX). Briefly: CD19-TCB anti-tumor activity in lymphoma PDX bearing humanized NSG mice. It is filed as in vivo. The following applies: sirolimus 5 mg/kg, p.o.; for anti-tumor activity in combination with CD19-TCB (0.5 mg/kg): ruxolitinib 30 mg/kg, dasatinib 20 mg/kg, dexamethasone, transient use. The protocol: as §1, §2
In a further assay the test system is CTV WSU tumor cells. Kind of assay: tumor cell killing by PGLALA and CD16 universal CAR-T cells. It counts as cell-based. The following applies: 100 nM inhibitor, 24 hours; for tumor cell killing by PGLALA CAR-T cells: PGLALA Fc anti-CD20 IgG; for tumor cell killing by CD16 CAR-T cells: wild-type Fc anti-CD20 IgG. The protocol:
FIG. 61. CTV labelled WSU tumor cell killing by PGLALA CAR-T cells (A) and CD16 CAR-T cells (B) in the presence and absence of 100 nM ruxolitinib or 100 nM sirolimus. PGLALA CAR-T cells and CD16 CAR-T cells were co-cultured together with CTV labelled WSU tumor cells (E:T=10:1) and escalating concentrations of anti-CD20 IgG with either PGLALA-Fc (for PGLALA CAR-T cells) or wild-type Fc (for CD16 CAR-T cells) in the presence and absence of 100 nM ruxolitinib (ruxo) or 100 nM sirolimus (siro). At 24 hours, the technical replicates were pooled and stained with a LIVE/DEAD™ Near-IR dye to allow exclusion of dead CTV labelled WSU DLCL2 tumor cells by flow cytometry. 1 representative donor.
To assess the impact of JAK inhibitor ruxolitinib and mTOR inhibitor sirolimus on cytokine release induced by CAR-T cells, we conducted a killing assay where PGLALA and CD16 universal CAR-T cells (CAR-T cells with a CAR comprising an anti-P329G-Fc scFv (binding to PGLALA Fc) or CD16 (binding to wild-type Fc)) were co-cultured with CTV WSU tumor cells in the presence of escalating concentrations of PGLALA Fc and wild-type Fc anti-CD20 IgG in medium supplemented with 100 nM ruxolitinib or 100 nM sirolimus. To verify whether ruxolitinib and sirolimus interfered with tumor cell killing by CAR-T cells, we measured killing of CTV WSU tumor cells by flow cytometry at 24 hours.

The subject of the next assay is NALM-6 tumors cells. Kind of assay: CD19-TCB killing assay with NALM-6 cells, inhibitors added after 24 hrs of activation: killing. It is filed as cell-based. The following applies: 100 nM added at 24 hrs; measured at 48 hrs. The method, then:
as §3, §4

In assay [5] the test system is CD20-TCB-induced cytokine release. Kind of assay: CD20-TCB-induced cytokine release in non-tumor bearing humanized NSG mice (serum, Luminex). It is filed as in vivo. The following applies: serum 4 hours and 24 hours after CD20-TCB; ruxolitinib 30 to 60 mg/kg. The protocol:
FIG. 95. In vivo experiment timelines and dosing schedule.
Different doses of mTOR, JAK and Src kinase inhibitors were tested to determine the optimal dose that reduces CD20-TCB-induced cytokine release while minimally interfering with B cell depletion. […] The doses of 30 and 60 mg/kg were tested for ruxolitinib and the doses of 10 and 50 mg/kg were tested for dasatinib. To reproduce the clinical route of administration, the different kinase inhibitors were given orally (p.o.) once or twice per day as depicted in FIG. 95. Mice were bled 4 hours and 24 hours after the treatment with CD20-TCB (FIG. 95) to collect serum for cytokine level measurements by Luminex. Additionally, blood was collected 48 hours and 72 hours (termination) post treatment with CD20-TCB to measure the percentage of CD19+ B cells among human CD45+ cells by flow cytometry (FIG. 95).

[6] abbreviates: serum 6 hrs post first infusion with CD19-TCB, ruxolitinib 30 mg/kg.

`CO[C@H]1C[C@@H]2CC[C@@H](C)[C@@](O)(O2)C(=O)C(=O)N2CCCC[C@H]2C(=O)O[C@H]([C@H](C)C[C@@H]2CC[C@@H](O)[C@H](OC)C2)CC(=O)[C@H](C)/C=C(\C)[C@@H](O)[C@@H](OC)C(=O)[C@H](C)C[C@H](C)/C=C/C=C/C=C/1C` [sirolimus, Sirolimus]: in assay [1], the “effects on cytokine levels” value was “stronger than the effect of obinutuzumab pre-treatment”. Moreover, in assay [1] (serum 6 hrs post first infusion with CD19-TCB), the “IL-2, IFN-γ, TNF-α and IL-6 release upon the first infusion” value was “suppressed”. In assay [2], the “CD19-TCB-induced IFN-γ and IL-6 release” value is “comparable to the pre-treatement with obinutuzumab”; the “CD19-TCB-induced IL-2 and TNF-α” value is “comparable to the pre-treatement with Gazyva®”. Also, in assay [3], the “further release of IFN-γ, TNF-α, IL-2 and IL-6” value was “prevented further release”. Further, in assay [4], the “anti-tumor activity in combination with CD19-TCB (0.5 mg/kg)” value was “comparable to CD19-TCB alone; also recorded: did not impair”. Moreover, in assay [4] (dexamethasone 1, 0.5, 0.25 mg/kg), the “tumor growth, given as a single agent” value is on record as “reduction in tumor growth, yet not significant”. Moreover, in the assay with CTV WSU tumor cells, the “tumor cell killing by PGLALA CAR-T cells” value is listed as “neither sirolimus nor ruxolitinib prevented” and the “tumor cell killing by CD16 CAR-T cells” value is “neither sirolimus nor ruxolitinib prevented”. The “CTV labelled NALM-6 tumor cell killing” value in the assay on NALM-6 tumors cells was “did not prevent”.
`N#CC[C@H](C1CCCC1)n1cc(-c2ncnc3[nH]ccc23)cn1` [ruxolitinib, Ruxolitinib]: in assay [1], the “effects on cytokine levels” value is given as “stronger than the effect of obinutuzumab pre-treatment”. In assay [1] (setting [6]), the “IFN-γ, TNF-α and IL-2 release” value was “to a lower extent”; the IL-6 release entry is “decreased”. Also, in assay [2], the “CD19-TCB-induced IFN-γ and IL-6 release” value is “comparable to the pre-treatement with obinutuzumab”; the “CD19-TCB-induced IL-2 and TNF-α” value was “slightly weaker”. In addition, the “further release of IFN-γ, TNF-α and IL-6” value in assay [3] was “only prevented further release”. Also, the “anti-tumor activity in combination with CD19-TCB (0.5 mg/kg)” value in assay [4] is given as “minimally interfered; also recorded: did not impair”. Besides, in the assay on CTV WSU tumor cells, the “tumor cell killing by PGLALA CAR-T cells” value is listed as “neither sirolimus nor ruxolitinib prevented” and the “tumor cell killing by CD16 CAR-T cells” value is “neither sirolimus nor ruxolitinib prevented”. The “CD20-TCB-mediated cytokine release other than IL-2 and GM-CSF” value in assay [5] is given as “durably reduced”. The “CTV labelled NALM-6 tumor cell killing” value with NALM-6 tumors cells is “did not prevent”.
